Literature values as cited in patent US9486545B2, “Method of screening for colon cancer using biomarkers” (H. Lee Moffitt Cancer Center and Research Institute, Inc., priority 2011, dated 2016).
pIC50: −log10 of the molar value.

System: TLR4

In the case of `CCOC(=O)C1=CCCC[C@H]1S(=O)(=O)Nc1ccc(F)cc1Cl` [TAK 242, ethyl (6R)-6-[N-(2-Chloro-4-fluorophenyl)sulfamoyl]cyclohex-1-ene-1-carboxylate], the pIC50 is listed as 8.49.
